Reference: patent US11622976B2, “Urine alkali agent useful for treatment of cancer patient” (Delta-Fly Pharma, Inc., priority 2018, dated 2023)
“Also recorded” adds a separate entry of the source.

Legend:
[1] = tested on: breast cancer associated with lung metastasis; experiment: Urinary alkalinization therapy, breast cancer patient with lung metastasis (person); type: in vivo, human
Method: A patient was diagnosed with breast cancer […] and underwent a surgical operation. In January, 2011, transfer of recurrent breast cancer to the lung was found. Administration of Taxotere (80 mg/m^2) was continued at the intervals of 3 weeks. […] Because of this, the dose of Taxotere was reduced to 60 mg/m^2 (intervals of 3 weeks).

lung cancer = experiment: Urinary alkalinization therapy, lung cancer patient; type: in vivo, human
Excerpt: A patient successively underwent a surgery for breast cancer in March, 2009, a surgery for endometrial cancer in October, 2010 and a surgery for lung cancer (adenocarcinoma, upper right lobe) in December, 2011.
From January, 2012, application of a urinary alkalinization therapy, including orally administering magnesium oxide (laxative, Magmitt (manufactured by Kyowa Chemical Industry Co., Ltd.)) every day in a dose of 2 g per day after a meal three times (the dose being divided into three portions), was initiated.

B16 melanoma cells = conditions: aqueous solution 200 mmol/L (17 g/L) fed, with cancer immunotherapy by e.g. a cancer immunity-checkpoint inhibitor; vs water without sodium hydrogen carbonate; cited from earlier work
cancer cells = conditions: pHe shifted from acidic to alkaline range by gradually increasing the concentration in the serum; cited from earlier work
[2] = tested on: gastric cancer (gastroesophageal junction cancer); conditions: cited from earlier work

Compound: CC(=O)O[C@@]12CO[C@@H]1C[C@H](O)[C@@]1(C)C(=O)[C@H](O)C3=C(C)[C@@H](OC(=O)[C@H](O)[C@@H](NC(=O)OC(C)(C)C)c4ccccc4)C[C@@](O)([C@@H](OC(=O)c4ccccc4)[C@H]21)C3(C)C [Taxotere, docetaxel]
- side effect ([1]; Taxotere alone 80 mg/m^2 every 3 weeks, six months): severe side effect
- disease state ([1]; Taxotere alone reduced to 60 mg/m^2 every 3 weeks): the disease did not become stable

Compound: [O]=[Mg] [magnesium oxide]
- urine pH value (lung cancer; continuous oral administration, 2 g per day): kept in the alkaline pH range
- recurrence/metastasis, development of another cancer (lung cancer; oral, 2 g per day in three portions, every day from January, 2012, after surgeries): recurrence and metastasis of lung cancer have not been observed; also recorded: Neither development of another cancer nor recurrence/metastasis has been found

Compound: O=C([O-])O.[Na+] [sodium hydrogen carbonate]
- antitumor effect (B16 melanoma cells): a significantly high antitumor effect is obtained
- proliferation and invasion of cancer cells (cancer cells): the proliferation and invasion of cancer cells can be suppressed

Compound: Opdivo: immune checkpoint inhibitor containing anti-human PD-1 monoclonal antibody (nivolumab)
- median overall survival ([2]; gastric cancer patients (gastroesophageal junction cancer), Lancet. 2017 Dec. 2, 390 (10111): 2461-2471): about 5.26 months
- tumor shrinkage and decrease of a tumor marker level ([2]; patients with end-stage gastric cancer): seldom confirmed
